The nature of series [1]: Oral pharmacokinetic / bioavailability study in rabbits. It counts as in vivo, New Zealand white rabbits. The note with it: rabbit, equivalent to 200 mg pazopanib. On the procedure:
A bioavailability study was carried out to assess the drug absorption and pharmacokinetic parameters of different prepared formulations. A suitable animal was selected, and in vivo studies were performed in accordance with the ethical guidelines for animal care and use committee.
New Zealand white rabbits (Species and strain: […]) (5–6 months older, 2.0 ± 0.2 kg, 34–50 cm without tail) were utilized in this study. Animals were maintained at standard environmental conditions of temperature 24 ± 2 °C, humidity (55 ± 5%), under 12:12 h light (08:00–20:00 h)/dark cycle. Animals had free access to rodent chow and tap water ad libitum. Approval for animal studies was gained by the Institutional Animal Ethics Committee (Protocol no. IAEC; 1888/PO/Re/S/16/ CPCSEA/2022/01), constituted for the purpose of control and supervision of experimental animals and agreed with the globally acknowledged Principles for Laboratory Animal Use and Care as indicated by the National Institutes of Health Guide (NIH Publication No. 85–23, revised 1985). Animals were naive to drug treatments and experimentation, at the beginning of all studies. All tests were conducted at BM College of Pharmaceutical Education and Research (BMCPER), Indore, M.P. between 09:00 and 18:00 h.
Animals (n = 3) were settled into three different groups. First group (control) received Pazopanib drug (control), second group received the marketed pazopanib hydrochloride immediate release tablet (Votrient Tablets, 200 mg), while third group received drug formulations (equivalent to 200 mg of Pazopanib) prepared using HME technique, respectively. Dosage forms were administered orally via gastric intubation. Animals were fasted for 12 h with free access to water prior to drug administration. Rabbits were held in rabbit restrainers during blood sampling. Blood samples were collected in heparinized tubes from ear veins at predetermined time points (0, 0.5, 1, 2, 3, 4, 6, 8, 12, and 24 h) after oral administration. Plasma samples were obtained following centrifugation of blood at 3200× g for 5 min at 2–8 °C and kept frozen at −70 °C until analysis.
Pazopanib plasma concentration was plotted against time to obtain the concentration–time profiles, which were used to determine the peak blood concentration (Cmax) and time to achieve the peak concentration (Tmax). Non-compartmental pharmacokinetic analysis was conducted to calculate the area under the curve from 0 to 24 h [(AUC)0-24). The values of Cmax and Tmax for the test preparation were obtained by actual observations. All data were presented as mean ± standard deviation. In order to determine the area under the curve from 0 to 24 h, a non-compartmental PK study was performed using Win-Nonlin PK/PD software (version 8.1). Comparative blood plasma concentration (µg/mL) at different time points for Pazopanib drug and its formulation are depicted in below Figure 24.

For series [2] the following is noted: cited from earlier work.
Where [3] appears, read: oral via gastric intubation, fasted, plasma.

Consider 1 compound from PMC11206766, “QbD-Based Development and Evaluation of Pazopanib Hydrochloride Extrudates Prepared by Hot-Melt Extrusion Technique: In Vitro and In Vivo Evaluation” (Pharmaceutics, 2024).

A word on the Cmax: it is the highest concentration seen after dosing. What is called Tmax is the time from dosing to the highest level. One may read the log P as the decadic logarithm of the partition coefficient of the neutral form, usually between octanol and water. By pKa is commonly meant the pH at which an ionisable group is half protonated. On to `Cc1ccc(Nc2nccc(N(C)c3ccc4c(C)n(C)nc4c3)n2)cc1S(N)(=O)=O.Cl` [PZB-Drug/API, Pazopanib Hydrochloride], for which, in series [1] (setting [3]), the maximum concentration (Cmax) came to 44700 ng/mL and the Tmax is recorded as 2 h. Besides, in series [1] (oral), the T lag is 0 h. Besides, the “AUC Last” value in series [1] (oral, 0 to 24 h, non-compartmental) was determined as 308.675 µg·h/mL. In addition, the “C Last” value in series [1] (oral, last sampling 24 h) turned out to be 7.6 µg/mL. In series [2], the BCS class entry is on record as “BCS class II”, the “log P” value was 3.55 and the pKa is 2.5.
